What was measured:
[1] = tested on: MCF10A-5E cells; test: Proliferation of acini in 3D culture (phospho-Rb whole-mount immunofluorescence); format: cell-based, human; details: shGFP control cells + 20 μM IC87114, replaced every four days
Method: We next asked whether PIK3CD was specifically important for normal acinar morphogenesis. To eliminate the very-rare PIK3CD^hi subpopulation, p110δ was perturbed by two independent methods: RNA interference and the p110δ-specific small-molecule inhibitor, IC87114 (Knight et al. (2006) Cell 125(4):733-747) (FIG. 18A and FIG. 21). […] Primers were annealed at 95° C. in annealing buffer (10 mM Tris-HCl, 100 mM NaCl, 1 mM EDTA) for 5 min on a thermocycler and cooled slowly to room temperature by unplugging the instrument. Annealed primers were phosphorylated in vitro with T4 polynucleotide kinase (New England Biolabs) and then cloned into pLKO.1 puro (Moffat et al. (2006) Cell 124(6):1283-1298) that had been digested with EcoRI and AgeI. Lentiviruses were packaged and transduced into MCF10A-5E cells and selecting with 2 μg/ml puromycin as previously described (Wang et al. (2011) Proc Natl Acad Sci U S A 108(40):E803-812) to produce shGFP and shPIK3CD cell lines. MCF10A (shGFP, and shPIK3CD) cell lines were cultured in 3D as previously described (Debnath et al. (2003) Methods 30(3):256-268). […]
Whole-mount immunofluorescence of shGFP and shPIK3CD cultures was performed as previously described (Wang et al. (2011) Proc Natl Acad U S A 108(40):E803-812). […] Samples were scored for pRb-positive acini as before (Wang et al. (2011) Proc Natl Acad Sci U S A 108(40):E803-812).

[2] = tested on: p110δ; test: IC87114 inhibitor validation: pAkt immunoblotting after lysophosphatidic acid stimulation; format: cell-based, human; details: MCF10A-5E cells, 20 μM IC87114 pre-treatment for one hour, 10 μM lysophosphatidic acid for five minutes
Method: For p110δ inhibitor experiments, 20 μM IC87114 (Calbiochem) was added to the assay medium and replaced every four days. IC87114 inhibitor validation was performed as follows. MCF10A-5E cells were plated in 6-well dishes and cultured in serum-free medium overnight. Wells were pre-treated with or without 20 μM IC87114 (Calbiochem) for one hour and then stimulated with 10 μM lysophosphatidic acid (Sigma-Aldrich) for five minutes. Cells were lysed as previously described (Wang et al. (2011) Proc Natl Acad U S A 108(40):E803-812), and lysates were probed for pAkt levels by immunoblotting.
Immunoblotting was performed as follows. 30-50 μg of clarified cell extract was separated on an 8% or 10% SDS-PAGE gel and transferred to PVDF (Millipore). Membranes were blocked in 0.5×Odyssey blocking buffer (Licor) for one hour and incubated overnight at 4° C. in 0.5×Odyssey blocking buffer with 0.1% Tween containing one of the following primary antibodies: anti-p110δ (1:500; Santa Cruz Biotechnology) or anti-pAkt Ser473 (1:1000; Cell Signaling). Additionally, chicken anti-tubulin (1:20000; Abeam) was added to each primary solution as a loading control. […]

Cc1ccccc1-n1c(Cn2cnc3c(N)ncnc32)nc2cccc(C)c2c1=O [IC87114]
proliferating (pRb-positive) acini [1]: sustained proliferation
Akt phosphorylation (pAkt Ser473 levels) stimulated by p110δ [2]: inhibits Akt phosphorylation

— patent US10453555B2, “Parameterizing cell-to-cell regulatory heterogeneities via stochastic transcriptional profiles” (University of Virginia Patent Foundation, priority 2015, dated 2019)
